The values below come from patent publication US20220213341A1, “COLORED RESIN PARTICLE DISPERSION, INK, INK SET, INK JET TEXTILE PRINTING METHOD, MANUFACTURING METHOD OF OIL-SOLUBLE DYE, AND PRINTED TEXTILE PRODUCT” (FUJIFILM CORPORATION, priority 2019, published 2022).

This data set can be described thus: MEK solubility of the dyes. Type of data set: physicochemical. The settings on record: solubility in methyl ethyl ketone at 20° C. Here is the method: In the present disclosure, the “oil-soluble dye” means a dye having a solubility of 5 mass % or greater in methyl ethyl ketone at 20° C. (hereinafter, also referred to as “MEK solubility”).

Molecules are shown by their SMILES.

As to `CCCCC(CC)COCCS(=O)(=O)c1ccc(/N=N/c2c(S(=O)(=O)O)cc3cc(S(=O)(=O)O)c(/N=N/c4ccc(S(=O)(=O)CCOCC(CC)CCCC)cc4)c(O)c3c2N)cc1` (stereo not drawn) [d-2], the “MEK Solubility” value amounted to 10 mass %.

With `CCCCCCCCCCCCSCCS(=O)(=O)c1ccc(/N=N/c2c(S(=O)(=O)O)cc3cc(S(=O)(=O)O)c(/N=N/c4ccc(S(=O)(=O)CCSCCCCCCCCCCCC)cc4)c(O)c3c2N)cc1` [d-3], the “MEK Solubility” value is 10 mass %.

Take `CCCCC(CC)COCCCNCCS(=O)(=O)c1ccc(/N=N/c2c(S(=O)(=O)O)cc3cc(S(=O)(=O)O)c(/N=N/c4ccc(S(=O)(=O)CCNCCCOCC(CC)CCCC)cc4)c(O)c3c2N)cc1` (stereo not drawn) [d-4]: the “MEK Solubility” value came to 10 mass %.

On to `CC(C)CNCCS(=O)(=O)c1ccc(/N=N/c2c(S(=O)(=O)O)cc3cc(S(=O)(=O)O)c(/N=N/c4ccc(S(=O)(=O)CCNCC(C)C)cc4)c(O)c3c2N)cc1` [d-5], for which the “MEK Solubility” value is recorded as 7 mass %.

`CC(C)(C)CC(C)(C)NCCS(=O)(=O)c1ccc(/N=N/c2c(S(=O)(=O)O)cc3cc(S(=O)(=O)O)c(/N=N/c4ccc(S(=O)(=O)CCNC(C)(C)CC(C)(C)C)cc4)c(O)c3c2N)cc1` [d-6]: the “MEK Solubility” value amounted to 10 mass %.

Take `CCCCN(CCCC)CCS(=O)(=O)c1ccc(/N=N/c2c(S(=O)(=O)O)cc3cc(S(=O)(=O)O)c(/N=N/c4ccc(S(=O)(=O)CCN(CCCC)CCCC)cc4)c(O)c3c2N)cc1` [d-7]: the “MEK Solubility” value came to 7 mass %.

Turning to `CCCCCCN(CCCCCC)CCS(=O)(=O)c1ccc(/N=N/c2c(S(=O)(=O)O)cc3cc(S(=O)(=O)O)c(/N=N/c4ccc(S(=O)(=O)CCN(CCCCCC)CCCCCC)cc4)c(O)c3c2N)cc1` [d-8], the “MEK Solubility” value came to 10 mass %.

As for `CCCCCCCCN(CCCCCCCC)CCS(=O)(=O)c1ccc(/N=N/c2c(S(=O)(=O)O)cc3cc(S(=O)(=O)O)c(/N=N/c4ccc(S(=O)(=O)CCN(CCCCCCCC)CCCCCCCC)cc4)c(O)c3c2N)cc1` [d-9], the “MEK Solubility” value was 10 mass %.
